Measurements: patent US6841661B2, “Glycopeptide antibacterial compounds, compositions containing same and methods of using same” (Princeton Univerisity, priority 1999, dated 2005)

Experiments:
[1] = test system: E. faecium CL 4931 (VanA); test: microbe, parasite or virus in culture; type: cell-based; design: CL4931 (in vitro testing): unit not given here; conditions: Tables 7 and 8; unit not given
Excerpt: (§1) National Committee for Clinical Laboratory Standards (NCCLS) guidelines [Methods for Dilution Antimicrobial Susceptibility Tests for Bacteria that Grow Aerobically-Fourth Edition; Approved Standard (NCCLS Document M7-A4, January 1997)] are used to establish the assay, although variations are made to optimize the published method according to the specific needs of the present investigation.
(§2) The test panel currently includes eight enterococci and 13 staphylococci, which are selected based upon their antibiotic susceptibility profiles. The methicillin-sensitive Staphylococcus aureus (MSSA) strain MB2985 (Smith isolate) is used to assesses the potential for serum protein binding of the compounds. The paired Gram-negative strains ASP #49 (envA-) and ASP #50 (envA+) (M. Salvatore/N. Lee) are included to judge membrane effects. Table 3 presents a detailed description of the strains included in the panel, including some of the sources of the strains of bacteria.
(§3) The glycopeptide antibiotic teicoplanin is included whenever possible.
(§4) TSB, containing 10% HS* for vancomycin intermediate S. aurcus/methicillin-resistant S. aureus (VISA/MRSA) strains, is inoculated from an appropriate source (frozen broth or agar slant) and grown approximately 17 hr at 35° C. with shaking at 220 rpm. Cultures are grown in tubes with a volume of 5 ml for enterococci and 2 ml for all other strains.
(§5) Four milliliter (4 ml) overnight culture is added to 36 ml physiological saline to obtain tenfold dilutions (enterococci). Overnight culture (0.4 ml) is added to 39.6 ml saline to obtain 100-fold dilutions (all strains except enterococci). Diluted cultures are maintained on ice until time of inoculation of test plates.
(§6) The number of CFU/mL is determined on BHI agar plates, although this is not done routinely because titers of overnight cultures are relatively constant. The test media include: • BHI for enterococci and VISA/MRSA; • MH II (i.e., cation-adjusted Mueller-Hinton broth) for MRS, MSS and E. coli.; • MH II+HSA for MSSA is prepared as follows: • a. 2×MHII+86mg/ml HSA • b. Dissolve 4.3 g HSA in 50 ml autoclaved 2x MH II. • c. pH to 7.0 by adding 2M MOPS, sodium. • d. Filter sterilize using 0.22 μm Coming cellulose acetate filter, used because of reported low protein binding. • e. 1×MH II+43 mg/ml HSA • f. Dilute the 2×medium twofold and filter as above. 5.8.6. Preparation of Test Plates
(§7) Using a Denley liquid handling system (or similar automatic device), 100 μ1×medium is added to each well in columns 2-12 of a 96-well microtiter dish. Using a multichannel pipettor, 100 μl 2×medium is added to each well in column 1. Plates may be filled on the day prior to assay, wrapped in plastic bags and refrigerated.
(§8) Vancomycin, Schering 29482, and teicoplanin are prepared on a weight per volume basis using 10 mM 3-(N-morpholino)propane-sulfonic acid (MOPS) buffer pH 7. Test compounds are received in solution in appropriate solvent (typically as 1 mg/ml in DMSO) or are dissolved in appropriate solvent prior to further dilution in 10 mM MOPS buffer, ph7. Consistent with NCCLS guidelines, antibiotics are handled aseptically but are not otherwise sterilized.
(§9) 100 μl appropriately diluted antibiotic solution is added to the first well of the designated row of the 96-well microtiter dish and serially diluted by twofold across the row using the Denley liquid handling system. With the aid of a Dynatech NEC 2000 inoculator, each well of the microtiter dish is inoculated with 1.5 μl diluted overnight culture, yielding approximately 1-5×10^6 CFU/ml for enterococci and approximately 3-7×10^5 CFU/ml for all other strains. Dishes are placed in stacks of no more than five, wrapped in plastic bags and incubated at 35° C. • Indication of result(s) type (% INH, IC50, Zone size, etc.) • MIC=minimum inhibitory concentration ps 5.8.9. Interpretation of the Results on the Basis of Activity […]

[2] = test system: E. faecalis CL 4877 (VanB); test: microbe, parasite or virus in culture; type: cell-based; design: CL4877 (in vitro testing): unit not given here; conditions: Tables 7 and 8; unit not given
Excerpt: as §1, §2, §3, §4, §5, §6, §7, §8, §9

[3] = test system: E. faecium CL 5242 (VanA); test: microbe, parasite or virus in culture; type: cell-based; design: CL5242 (in vitro testing): unit not given here; conditions: Tables 7 and 8; unit not given
Excerpt: as §1, §2, §3, §4, §5, §6, §7, §8, §9

[4] = test system: E. faecium CL 5053 (VanA); test: microbe, parasite or virus in culture; type: cell-based; design: CL5053 (in vitro testing): unit not given here; conditions: Tables 7 and 8; unit not given
Excerpt: as §1, §2, §3, §4, §5, §6, §7, §8, §9

[5] = test system: CL 4931, CL 5053, CL 5242 and CL 4877; type: cell-based, E. faecium, E. faecalis; design: unit not given here; conditions: mean of CL4931, CL5053, CL5242, CL4877; unit not given
Excerpt: as §1, §2, §3, §4, §5, §6, §7, §8, §9

Row | SMILES | CL4931 (in vitro testing) [1] | CL4877 (in vitro testing) [2] | CL5242 (in vitro testing) [3] | CL5053 (in vitro testing) [4] | Mean [5]
1 | CNC(CC(C)C)C(=O)NC1C(=O)NC(CC(N)=O)C(=O)NC2C(=O)NC3C(=O)NC(C(=O)NC(C(=O)O)c4cc(O)cc(O)c4-c4cc3ccc4O)C(O)c3ccc(c(Cl)c3)Oc3cc2cc(c3OC2OC(CNCc3ccc(N)cc3)C(O)C(O)C2OC2CC(C)(NCc3ccc(OCc4ccc(Cl)c(Cl)c4)cc3)C(O)C(C)O2)Oc2ccc(cc2Cl)C1O (centres unmarked) [Compound 133] | 2 | 0.03 | 0.5 | 2 | 1.1
2 | CNC(CC(C)C)C(=O)NC1C(=O)NC(CC(N)=O)C(=O)NC2C(=O)NC3C(=O)NC(C(=O)NC(C(=O)O)c4cc(O)cc(O)c4-c4cc3ccc4O)C(O)c3ccc(c(Cl)c3)Oc3cc2cc(c3OC2OC(CNCc3ccccc3)C(O)C(O)C2OC2CC(C)(NCc3ccc(OCc4ccc(Cl)c(Cl)c4)cc3)C(O)C(C)O2)Oc2ccc(cc2Cl)C1O (centres unmarked) [Compound 134] | 2 | 0.25 | 1 | 4 | 1.8
3 | CNC(CC(C)C)C(=O)NC1C(=O)NC(CC(N)=O)C(=O)NC2C(=O)NC3C(=O)NC(C(=O)NC(C(=O)O)c4cc(O)cc(O)c4-c4cc3ccc4O)C(O)c3ccc(c(Cl)c3)Oc3cc2cc(c3OC2OC(CNCCc3ccc(N)cc3)C(O)C(O)C2OC2CC(C)(NCc3ccc(OCc4ccc(Cl)c(Cl)c4)cc3)C(O)C(C)O2)Oc2ccc(cc2Cl)C1O (centres unmarked) [Compound 135] | 4 | 0.06 | 1 | 4 | 2.3
4 | CNC(CC(C)C)C(=O)NC1C(=O)NC(CC(N)=O)C(=O)NC2C(=O)NC3C(=O)NC(C(=O)NC(C(=O)O)c4cc(O)cc(O)c4-c4cc3ccc4O)C(O)c3ccc(c(Cl)c3)Oc3cc2cc(c3OC2OC(CNCc3ccc(F)cc3)C(O)C(O)C2OC2CC(C)(NCc3ccc(OCc4ccc(Cl)c(Cl)c4)cc3)C(O)C(C)O2)Oc2ccc(cc2Cl)C1O (centres unmarked) [Compound 136] | 4 | 0.12 | 1 | 4 | 2.3
5 | CNC(CC(C)C)C(=O)NC1C(=O)NC(CC(N)=O)C(=O)NC2C(=O)NC3C(=O)NC(C(=O)NC(C(=O)O)c4cc(O)cc(O)c4-c4cc3ccc4O)C(O)c3ccc(c(Cl)c3)Oc3cc2cc(c3OC2OC(CNCc3cccc(Cl)c3)C(O)C(O)C2OC2CC(C)(NCc3ccc(OCc4ccc(Cl)c(Cl)c4)cc3)C(O)C(C)O2)Oc2ccc(cc2Cl)C1O (centres unmarked) [Compound 137] | 4 | 0.12 | 1 | 4 | 2.3
6 | CNC(CC(C)C)C(=O)NC1C(=O)NC(CC(N)=O)C(=O)NC2C(=O)NC3C(=O)NC(C(=O)NC(C(=O)O)c4cc(O)cc(O)c4-c4cc3ccc4O)C(O)c3ccc(c(Cl)c3)Oc3cc2cc(c3OC2OC(CNCc3ccc(OC)cc3)C(O)C(O)C2OC2CC(C)(NCc3ccc(OCc4ccc(Cl)c(Cl)c4)cc3)C(O)C(C)O2)Oc2ccc(cc2Cl)C1O (centres unmarked) [Compound 138] | 8 | 0.5 | 1 | 4 | 3.4
7 | CNC(CC(C)C)C(=O)NC1C(=O)NC(CC(N)=O)C(=O)NC2C(=O)NC3C(=O)NC(C(=O)NC(C(=O)O)c4cc(O)cc(O)c4-c4cc3ccc4O)C(O)c3ccc(c(Cl)c3)Oc3cc2cc(c3OC2OC(CNCc3ccccc3N)C(O)C(O)C2OC2CC(C)(NCc3ccc(OCc4ccc(Cl)c(Cl)c4)cc3)C(O)C(C)O2)Oc2ccc(cc2Cl)C1O (centres unmarked) [Compound 139] | 8 | 0.25 | 2 | 4 | 3.6
8 | CNC(CC(C)C)C(=O)NC1C(=O)NC(CC(N)=O)C(=O)NC2C(=O)NC3C(=O)NC(C(=O)NC(C(=O)O)c4cc(O)cc(O)c4-c4cc3ccc4O)C(O)c3ccc(c(Cl)c3)Oc3cc2cc(c3OC2OC(CNCC3CCCCN3)C(O)C(O)C2OC2CC(C)(NCc3ccc(OCc4ccc(Cl)c(Cl)c4)cc3)C(O)C(C)O2)Oc2ccc(cc2Cl)C1O (centres unmarked) [Compound 140] | 4 | 0.5 | 2 | 8 | 3.6
9 | CNC(CC(C)C)C(=O)NC1C(=O)NC(CC(N)=O)C(=O)NC2C(=O)NC3C(=O)NC(C(=O)NC(C(=O)O)c4cc(O)cc(O)c4-c4cc3ccc4O)C(O)c3ccc(c(Cl)c3)Oc3cc2cc(c3OC2OC(CNCc3ccc(C)cc3)C(O)C(O)C2OC2CC(C)(NCc3ccc(OCc4ccc(Cl)c(Cl)c4)cc3)C(O)C(C)O2)Oc2ccc(cc2Cl)C1O (centres unmarked) [Compound 141] | 4 | 1 | 2 | 8 | 3.8
10 | CNC(CC(C)C)C(=O)NC1C(=O)NC(CC(N)=O)C(=O)NC2C(=O)NC3C(=O)NC(C(=O)NC(C(=O)O)c4cc(O)cc(O)c4-c4cc3ccc4O)C(O)c3ccc(c(Cl)c3)Oc3cc2cc(c3OC2OC(CNCC3CCCO3)C(O)C(O)C2OC2CC(C)(NCc3ccc(OCc4ccc(Cl)c(Cl)c4)cc3)C(O)C(C)O2)Oc2ccc(cc2Cl)C1O (centres unmarked) [Compound 142] | 4 | 2 | 2 | 8 | 4.0
11 | CNC(CC(C)C)C(=O)NC1C(=O)NC(CC(N)=O)C(=O)NC2C(=O)NC3C(=O)NC(C(=O)NC(C(=O)O)c4cc(O)cc(O)c4-c4cc3ccc4O)C(O)c3ccc(c(Cl)c3)Oc3cc2cc(c3OC2OC(CNCCc3ccccc3)C(O)C(O)C2OC2CC(C)(NCc3ccc(OCc4ccc(Cl)c(Cl)c4)cc3)C(O)C(C)O2)Oc2ccc(cc2Cl)C1O (centres unmarked) [Compound 143] | 8 | 2 | 2 | 4 | 4.0
12 | CNC(CC(C)C)C(=O)NC1C(=O)NC(CC(N)=O)C(=O)NC2C(=O)NC3C(=O)NC(C(=O)NC(C(=O)O)c4cc(O)cc(O)c4-c4cc3ccc4O)C(O)c3ccc(c(Cl)c3)Oc3cc2cc(c3OC2OC(CNC3CCCC3)C(O)C(O)C2OC2CC(C)(NCc3ccc(OCc4ccc(Cl)c(Cl)c4)cc3)C(O)C(C)O2)Oc2ccc(cc2Cl)C1O (centres unmarked) [Compound 144] | 4 | 2 | 2 | 8 | 4.0
13 | CNC(CC(C)C)C(=O)NC1C(=O)NC(CC(N)=O)C(=O)NC2C(=O)NC3C(=O)NC(C(=O)NC(C(=O)O)c4cc(O)cc(O)c4-c4cc3ccc4O)C(O)c3ccc(c(Cl)c3)Oc3cc2cc(c3OC2OC(CNCc3ccco3)C(O)C(O)C2OC2CC(C)(NCc3ccc(OCc4ccc(Cl)c(Cl)c4)cc3)C(O)C(C)O2)Oc2ccc(cc2Cl)C1O (centres unmarked) [Compound 145] | 8 | 0.5 | 1 | 8 | 4.4
